Assay results taken from patent US9695155B2, “Herbicidal substituted pyrimidinyloxy benzene compounds” (E. I. DU PONT DE NEMOURS AND COMPANY, priority 2013, dated 2017).

Columns and labels:
ducksalad = assay: Test C flooded paddy test; format: in vivo, Heteranthera limosa; settings: Flood, scale 0 to 100 (0 no effect, 100 complete control), 13 to 15 days
Method in brief: (§1)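 Under a constant 3 cm flood, test compounds went directly into the paddy water. Following 13 to 15 days of greenhouse growth, treated species and controls were compared by eye.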

barnyardgrass = assay: Test C flooded paddy test; format: in vivo, Echinochloa crus-galli; settings: Flood, scale 0 to 100 (0 no effect, 100 complete control), 13 to 15 days
Method in brief: as §1

galium = assay: Test A postemergence; format: in vivo, Galium aparine
Method in brief: (§2)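 Visual injury scored 0–100 (100 = complete control) against untreated controls about 10 days after treatment in a greenhouse. Test chemicals, formulated with surfactant in non-phytotoxic solvent, were sprayed on soil preemergence or on 2-10 cm, one- to two-leaf plants postemergence.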

kochia [1] = assay: Test A preemergence; format: in vivo, Kochia scoparia
Method in brief: as §2

Italian ryegrass = assay: Test A preemergence; format: in vivo, Lolium multiflorum
Method in brief: as §2

kochia [2] = assay: Test A postemergence; format: in vivo, Kochia scoparia
Method in brief: as §2

ragweed = assay: Test A preemergence; format: in vivo, Ambrosia elatior
Method in brief: as §2

[3] = 125 g ai/ha, 0 to 100 scale where 0 is no effect and 100 is complete control
[4] = 500 g ai/ha, 0 to 100 scale where 0 is no effect and 100 is complete control
[5] = 500 g ai/ha, 0 to 100 scale, 0 no effect, 100 complete control, approx. 10 days
[6] = 31 g ai/ha, 0 to 100 scale, 0 no effect, 100 complete control
[7] = 1000 g ai/ha, 0 to 100 scale, 0 no effect, 100 complete control
[8] = 1000 g ai/ha, 0 to 100 scale, 0 no effect, 100 complete control, approx. 10 days
[9] = 125 g ai/ha, 0 to 100 scale, 0 no effect, 100 complete control
[10] = 31 g ai/ha, 0 to 100 scale where 0 is no effect and 100 is complete control, visual, approximately 10 days

Structure (SMILES)	Plant response rating, Ducksalad (ducksalad; 31 g ai/ha)	Plant response rating, Ducksalad (ducksalad; 62 g ai/ha)	Plant response rating, Ducksalad (ducksalad; 125 g ai/ha)	Plant response rating, Ducksalad (ducksalad; 250 g ai/ha)	Plant response rating, Barnyardgrass (barnyardgrass; 31 g ai/ha)	Plant response rating, Barnyardgrass (barnyardgrass; 62 g ai/ha)	Plant response rating, Barnyardgrass (barnyardgrass; 125 g ai/ha)	Plant response rating, Barnyardgrass (barnyardgrass; 250 g ai/ha)	Plant response rating, Galium (galium; [4])	Plant response rating, Kochia (kochia [1]; [3])	Plant response rating, Ryegrass, Italian (Italian ryegrass; [3])	Plant response rating, Kochia (kochia [2]; [4])	Plant response rating, Ragweed (ragweed; [3])	Kochia plant response rating (kochia [1]; [4])	Ryegrass, Italian plant response rating (Italian ryegrass; [4])	Ragweed plant response rating (ragweed; [4])	other results
Clc1cnc(Oc2ccccc2-n2cc(Cl)cn2)nc1 [Compound 3]	0	50	70	85	0	0	0	0									
N#Cc1cccc(Oc2ncc(F)cn2)c1-n1cc(Br)cn1 [Compound 62]	30	70	85	100	0	0	0	40									
Clc1cnc(Oc2cccc(Br)c2-n2cc(Br)cn2)nc1 [Compound 65]	0	30	85	85	0	0	0	0									
FCc1cccc(Oc2ncc(Cl)cn2)c1-n1cc(Br)cn1 [Compound 83]									100	100	50	100	20				Plant response rating, Galium (galium; [3]): 100; Kochia plant response rating (kochia [1]; [5]): 100; Ryegrass, Italian plant response rating (Italian ryegrass; [5]): 60; Plant response rating, Kochia (kochia [2]; [3]): 100; Ragweed plant response rating (ragweed; [5]): 50
CCOc1cn(-c2c(Br)cccc2Oc2ncc(Cl)cn2)nn1 [Compound 84]									100	100	0	100	10				Plant response rating, Galium (galium; [3]): 100; Kochia plant response rating (kochia [1]; [5]): 100; Ryegrass, Italian plant response rating (Italian ryegrass; [5]): 20; Plant response rating, Kochia (kochia [2]; [3]): 100; Ragweed plant response rating (ragweed; [5]): 40
FCc1cccc(Oc2ncc(F)cn2)c1-n1cc(C(F)(F)F)cn1 [Compound 118]										100	50		90				Plant response rating, Galium (galium; [6]): 70; Plant response rating, Galium (galium; [3]): 90; Kochia plant response rating (0 to 100 scale) (kochia [1]; 31 g ai/ha): 100; Ryegrass, Italian plant response rating (0 to 100 scale) (Italian ryegrass; 31 g ai/ha): 0; Plant response rating, Kochia (kochia [2]; [6]): 60; Plant response rating, Kochia (kochia [2]; [3]): 100; Ragweed plant response rating (0 to 100 scale) (ragweed; 31 g ai/ha): 50
FCc1cccc(Oc2ncc(Br)cn2)c1-n1cc(C(F)(F)F)cn1 [Compound 120]	0	40	80	90	0	0	60	85		90	30		0				Plant response rating, Galium (galium; [6]): 90; Plant response rating, Galium (galium; [3]): 100; Kochia plant response rating (0 to 100 scale) (kochia [1]; 31 g ai/ha): 20; Ryegrass, Italian plant response rating (0 to 100 scale) (Italian ryegrass; 31 g ai/ha): 0; Plant response rating, Kochia (kochia [2]; [6]): 60; Plant response rating, Kochia (kochia [2]; [3]): 90; Ragweed plant response rating (0 to 100 scale) (ragweed; 31 g ai/ha): 0
Clc1cnc(Oc2cccc(Br)c2-n2cc(Br)nn2)nc1 [Compound 129]									100	100	10	100	30	100	30	80	Galium plant response rating (galium; [3]): 100; Kochia plant response rating (kochia [2]; [3]): 100
FC(F)(F)Sc1cnn(-c2ccccc2Oc2ncc(Cl)cn2)c1 [Compound 132, 5-chloro-2-[2-[4-(trifluoromethylthio)-1H-pyrazol-1-yl]phenoxy]pyrimidine]									100	100	30	100	0	100	40	10	Galium plant response rating (galium; [3]): 100; Kochia plant response rating (kochia [2]; [3]): 90
Cc1cnc(Oc2cccc(C#N)c2-n2cc(I)cn2)nc1 [Compound 136]									100	90	0	100	80	100	30	100	Galium plant response rating (galium; [3]): 80; Kochia plant response rating (kochia [2]; [3]): 70
COc1cnn(-c2c(C#N)cccc2Oc2ncc(Cl)cn2)c1 [Compound 137]									100	90	0	100	30	100	20	60	Galium plant response rating (galium; [3]): 70; Kochia plant response rating (kochia [2]; [3]): 80
CCCOc1cnn(-c2c(C#N)cccc2Oc2ncc(Cl)cn2)c1 [Compound 150]	0	40	70	75	0	0	0	0	100	100	20	100	30	100	50	70	Galium plant response rating (galium; [3]): 90; Kochia plant response rating (kochia [2]; [3]): 70
FCc1cn(-c2c(F)cccc2Oc2ncc(Cl)cn2)nn1 [Compound 154]																	Plant response rating, Galium (galium; [7]): 100; Kochia plant response rating (kochia [1]; [8]): 100; Ryegrass, Italian plant response rating (Italian ryegrass; [8]): 90; Plant response rating, Kochia (kochia [2]; [7]): 100; Ragweed plant response rating (ragweed; [8]): 100
Fc1cccc(Oc2ncc(Cl)cn2)c1-n1cc(C2CC2)nn1 [Compound 155]																	Plant response rating, Galium (galium; [7]): 100; Kochia plant response rating (kochia [1]; [8]): 100; Ryegrass, Italian plant response rating (Italian ryegrass; [8]): 60; Plant response rating, Kochia (kochia [2]; [7]): 100; Ragweed plant response rating (ragweed; [8]): 90
N#Cc1cnn(-c2c(Oc3ncc(Cl)cn3)cccc2C(F)F)c1 [Compound 236]	0	40	80	90	0	0	0	20									
N#Cc1cccc(Oc2ncc(Cl)cn2)c1-n1cnc(C(F)(F)F)c1 [Compound 252, 3-[(5-chloro-2-pyrimidinyl)oxy]-2-[4-(trifluoromethyl)-1H-imidazol-1-yl]benzonitrile]									100			100		100	90	100	Plant response rating, Galium (galium; [6]): 60; Plant response rating, Galium (galium; [9]): 90; Plant response rating, Kochia (kochia [1]; [10]): 80; Kochia plant response rating (0 to 100 scale) (kochia [1]; 125 g ai/ha): 100; Plant response rating, Ryegrass, Italian (Italian ryegrass; [10]): 20; Ryegrass, Italian plant response rating (0 to 100 scale) (Italian ryegrass; 125 g ai/ha): 20; Plant response rating, Kochia (kochia [2]; [6]): 70; Plant response rating, Kochia (kochia [2]; [9]): 100; Plant response rating, Ragweed (ragweed; [10]): 20; Ragweed plant response rating (0 to 100 scale) (ragweed; 125 g ai/ha): 70
N#Cc1cccc(Oc2ncc(Cl)cn2)c1-n1cc(-n2ccc(C(F)(F)F)n2)cn1 [Compound 284]									60			100		100	20	0	Plant response rating, Galium (galium; [9]): 20; Kochia plant response rating (0 to 100 scale) (kochia [1]; 125 g ai/ha): 80; Ryegrass, Italian plant response rating (0 to 100 scale) (Italian ryegrass; 125 g ai/ha): 20; Plant response rating, Kochia (kochia [2]; [9]): 60; Ragweed plant response rating (0 to 100 scale) (ragweed; 125 g ai/ha): 0
